The source of these data is PubChem BioAssay AID330 (DTP/NCI, 2004).

In this test the test system is P388 leukemia ip, CD2F1 mice, survival T/C. As to the kind of experiment: NCI In Vivo Anticancer Drug Screen. Data for tumor model P388 Leukemia (intraperitoneal) in CD2F1 (CDF1) mice. The settings on record: endpoint: median survival time, higher = longer survival. A digest of the protocol: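 Mice carrying the transplanted tumor received test compound or vehicle. Survival was recorded in each group, and the value is the treated-group measurement divided by that of the vehicle-treated control group.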

[1] abbreviates: dose: 50.0 mg/kg/injection, schedule: Q01DX009 (ip), vehicle: Klucel (hydroxypropylcellulose) (HPC).
Where [2] appears, read: dose: 100.0 mg/kg/injection, schedule: Q01DX009 (ip), vehicle: Klucel (hydroxypropylcellulose) (HPC).
The mark [3] stands for this setting: dose: 200.0 mg/kg/injection, schedule: Q01DX009 (ip), vehicle: Klucel (hydroxypropylcellulose) (HPC).
[4] abbreviates: dose: 50.0 mg/kg/injection, schedule: Q01DX005 (ip), vehicle: saline with Tween-80.
The mark [5] stands for this setting: dose: 100.0 mg/kg/injection, schedule: Q01DX005 (ip), vehicle: saline with Tween-80.
Setting [6] is: dose: 200.0 mg/kg/injection, schedule: Q01DX005 (ip), vehicle: saline with Tween-80.
Where [7] appears, read: dose: 60.0 mg/kg/injection, schedule: Q01DX005 (ip), vehicle: saline with Tween-80.
The mark [8] stands for this setting: dose: 50.0 mg/kg/injection, schedule: Q01DX009 (ip), vehicle: saline.
The mark [9] stands for this setting: dose: 100.0 mg/kg/injection, schedule: Q01DX009 (ip), vehicle: saline.
Setting [10] is: dose: 200.0 mg/kg/injection, schedule: Q01DX009 (ip), vehicle: saline.
Setting [11] is: dose: 100.0 mg/kg/injection, schedule: Q01DX009 (ip), vehicle: saline with Tween-80.
[12] abbreviates: dose: 50.0 mg/kg/injection, schedule: Q01DX009 (ip), vehicle: saline with Tween-80.
Where [13] appears, read: dose: 200.0 mg/kg/injection, schedule: Q01DX009 (ip), vehicle: saline with Tween-80.

Structures are written as SMILES. Where “and” joins values, the source holds several entries; their conditions need not be identical. Identical values can stand only once. Toxic doses and inconclusive results are not listed.

As to `CCC1=C[C@H]2CN(CCc3c([nH]c4ccccc34)[C@@](C(=O)OC)(c3cc4c(cc3OC)N(C)[C@H]3[C@@](O)(C(=O)OC)[C@H](OC(C)=O)[C@]5(CC)C=CCN6CC[C@]43[C@@H]65)C2)C1`, the T/C was 109 % of control (dose: 0.06 mg/kg/injection, schedule: Q01DX009 (ip), vehicle: water); 162 % of control (dose: 0.13 mg/kg/injection, schedule: Q01DX009 (ip), vehicle: water); 151 % of control (dose: 0.2 mg/kg/injection, schedule: Q01DX009 (ip), vehicle: saline); 106 % of control (dose: 0.25 mg/kg/injection, schedule: Q01DX009 (ip), vehicle: water); 163 % of control (dose: 0.4 mg/kg/injection, schedule: Q01DX009 (ip), vehicle: saline); 151 % of control (dose: 0.5 mg/kg/injection, schedule: Q04DX003 (ip), vehicle: water). The T/C reads like this: (dose: 0.8 mg/kg/injection, schedule: Q01DX009 (ip), vehicle: saline) 178 % of control; (dose: 1.0 mg/kg/injection, schedule: Q04DX003 (ip), vehicle: water) 169 % of control; (dose: 2.0 mg/kg/injection, schedule: Q04DX003 (ip), vehicle: water) 205 % of control; (dose: 4.0 mg/kg/injection, schedule: Q04DX003 (ip), vehicle: water) 241 % of control; (dose: 8.0 mg/kg/injection, schedule: Q04DX003 (ip), vehicle: water) 87 % of control.

Consider `CC1C(=O)C23CC1CCC2C12COC(=O)C1C(C)(C)C(O)CC2OC3=O` (stereo not drawn), for which the T/C runs as follows: (dose: 50.0 mg/kg/injection, schedule: Q04DX002 (ip), vehicle: saline with Tween-80) 113 % of control; (dose: 100.0 mg/kg/injection, schedule: Q04DX002 (ip), vehicle: saline with Tween-80) 93 % of control; (dose: 200.0 mg/kg/injection, schedule: Q04DX002 (ip), vehicle: saline with Tween-80) 112 % of control.

For the compound `N#C/C(=C\c1c(Cl)cccc1Cl)c1nc2ccccc2[nH]1`, the T/C under setting [1] is 115 % of control, the T/C under setting [2] is 103 % of control and the T/C under setting [3] was 112 % of control.

On to `Cc1c([N+](=O)[O-])oc2c1C(=O)NCCC2`, for which the T/C by setting is: under setting [1], 104 % of control; under setting [2], 91 % of control; under setting [3], 108 % of control.

As to `Oc1ccc(/C=N/N=C/c2ccc(O)c(O)c2)cc1O`, the T/C is 121 % of control under setting [4]; 106 % of control and 119 % of control under setting [5]; 113 % of control under setting [6]; 121 % of control (dose: 400.0 mg/kg/injection, schedule: Q01DX005 (ip), vehicle: saline with Tween-80).

For `O=C(NCc1ccccc1)C1C(=O)N(Cc2ccccc2)C(=O)/C1=N/O` (stereo not drawn), the T/C was 100 % of control under setting [4], 100 % of control under setting [5] and 100 % of control under setting [6].

On to `CC(CC(=O)O)C(C)(C#N)C(=O)O` (stereo not drawn), for which the T/C (dose: 50.0 mg/kg/injection, schedule: Q01DX005 (ip), vehicle: saline) was 102 % of control and 110 % of control; the T/C (dose: 100.0 mg/kg/injection, schedule: Q01DX005 (ip), vehicle: saline) is 91 % of control and 96 % of control; the T/C (dose: 200.0 mg/kg/injection, schedule: Q01DX005 (ip), vehicle: saline) is 96 % of control.

As to `CC(=O)CCC(=O)CC(=O)CCC(=O)Nc1cc(Cl)ccc1Cl`, the T/C was 107 % of control under setting [7]; 106 % of control (dose: 120.0 mg/kg/injection, schedule: Q01DX005 (ip), vehicle: saline with Tween-80); 101 % of control (dose: 240.0 mg/kg/injection, schedule: Q01DX005 (ip), vehicle: saline with Tween-80).

With `Cc1c(N(C)c2ccccc2)c(=S)n(C)c(=S)n1C`, the T/C is 89 % of control (dose: 50.0 mg/kg/injection, schedule: Q01DX005 (ip), vehicle: Klucel (hydroxypropylcellulose) (HPC)); 100 % of control (dose: 100.0 mg/kg/injection, schedule: Q01DX005 (ip), vehicle: Klucel (hydroxypropylcellulose) (HPC)); 90 % of control (dose: 200.0 mg/kg/injection, schedule: Q01DX005 (ip), vehicle: Klucel (hydroxypropylcellulose) (HPC)).

On to `Cc1nc2c(c(-c3ccc(Cl)cc3)n1)Cc1c(ccc3ccccc13)O2`, for which the T/C under setting [8] was 107 % of control and 95 % of control; the T/C under setting [9] was 100 % of control; the T/C under setting [10] is 100 % of control and 94 % of control.

As for `Clc1n[nH]c(Cl)n1`, under setting [11], the T/C was 95 % of control.

For the compound `C[n+]1ccc2ccccc2c1`, the T/C was 109 % of control (dose: 15.0 mg/kg/injection, schedule: Q01DX005 (ip), vehicle: saline with Tween-80); 100 % of control (dose: 30.0 mg/kg/injection, schedule: Q01DX005 (ip), vehicle: saline with Tween-80); 100 % of control and 104 % of control under setting [7].

`O=C(NC(=O)c1c(F)cccc1F)Nc1cc(Cl)c(F)c(Cl)c1F`: the T/C was 98 % of control (dose: 15.0 mg/kg/injection, schedule: Q01DX005 (ip), vehicle: Klucel (hydroxypropylcellulose) (HPC)); 90 % of control and 93 % of control (dose: 30.0 mg/kg/injection, schedule: Q01DX005 (ip), vehicle: Klucel (hydroxypropylcellulose) (HPC)); 87 % of control and 94 % of control (dose: 60.0 mg/kg/injection, schedule: Q01DX005 (ip), vehicle: Klucel (hydroxypropylcellulose) (HPC)); 93 % of control (dose: 120.0 mg/kg/injection, schedule: Q01DX005 (ip), vehicle: Klucel (hydroxypropylcellulose) (HPC)); 88 % of control (dose: 240.0 mg/kg/injection, schedule: Q01DX005 (ip), vehicle: Klucel (hydroxypropylcellulose) (HPC)).

Consider `OCCC1CCN(CC/C=C2/c3ccc(F)cc3Sc3ccc(C(F)(F)F)cc32)CC1`, for which the T/C was 99 % of control (dose: 25.0 micrograms/kg/injection, schedule: Q01DX001 (ip), vehicle: saline); 114 % of control and 96 % of control (dose: 50.0 micrograms/kg/injection, schedule: Q01DX001 (ip), vehicle: saline); 117 % of control (dose: 100.0 micrograms/kg/injection, schedule: Q01DX001 (ip), vehicle: saline).

`O=C(O)c1ccccc1[Se](=O)(=O)O`: the T/C is, setting by setting: under setting [8], 98 % of control; under setting [9], 100 % of control; under setting [10], 112 % of control.

As for `Cc1cc(C)n2ncc(Br)c2n1`, the T/C is 100 % of control under setting [4], 100 % of control under setting [5] and 94 % of control under setting [6].

For the compound `Nc1cc(Cl)nc(N)n1`, the T/C (dose: 25.0 mg/kg/injection, schedule: Q01DX009 (ip), vehicle: saline with Tween-80) is 96 % of control; the T/C under setting [12] was 97 % of control; the T/C under setting [11] is 101 % of control; the T/C under setting [13] was 105 % of control; the T/C (dose: 400.0 mg/kg/injection, schedule: Q01DX009 (ip), vehicle: saline with Tween-80) is 100 % of control.

As for `CC(=O)Nc1nc(N)nc(NC(C)=O)c1N=O`, the T/C by setting is: under setting [12], 110 % of control; under setting [11], 119 % of control; under setting [13], 117 % of control.

Regarding `COC1=CC(=O)c2ncccc2C1=O`, the T/C is 101 % of control (dose: 1.56 mg/kg/injection, schedule: Q01DX009 (ip), vehicle: DMSO); 100 % of control (dose: 3.13 mg/kg/injection, schedule: Q01DX009 (ip), vehicle: DMSO); 100 % of control (dose: 6.25 mg/kg/injection, schedule: Q01DX009 (ip), vehicle: DMSO); 111 % of control and 96 % of control (dose: 12.5 mg/kg/injection, schedule: Q01DX009 (ip), vehicle: DMSO); 101 % of control and 113 % of control (dose: 25.0 mg/kg/injection, schedule: Q01DX009 (ip), vehicle: DMSO).

Regarding `c1ccc2c3c(ccc2c1)-c1ccc2ccccc2c1OP1(=NP(N2CC2)(N2CC2)=NP(N2CC2)(N2CC2)=N1)O3`, the T/C is 100 % of control (dose: 100.0 mg/kg/injection, schedule: Q04DX002 (ip), vehicle: Klucel (hydroxypropylcellulose) (HPC)); 99 % of control (dose: 200.0 mg/kg/injection, schedule: Q04DX002 (ip), vehicle: Klucel (hydroxypropylcellulose) (HPC)); 103 % of control (dose: 400.0 mg/kg/injection, schedule: Q04DX002 (ip), vehicle: Klucel (hydroxypropylcellulose) (HPC)).
